A short description of this series: Specific cake resistance measurement (pressure filtration of crystal slurry, Tiller equation). Format: physicochemical. Here is the method: There follows examples of the present invention controlled crystallization process yielding crystalline material having improved filter cake specific resistance. For each of these examples, the filter cake specific resistance was measured in accordance with the following procedure. Specific Cake Resistance Measurement Procedure V(i): Into a pressure filter, the crystal slurry was filled. The filtration was then carried out under a constant pressure while the filtrate volume along with the filtration time was logged. During the cake formation, the relationship between the filtrate volume and the filtration time can be described by the Tiller equation: [formula] where: μ is the viscosity of filtrate, lb/ft-s or Pa·s; α is a specific cake resistance, ft, lb or […]; c is the mass solid deposited in the filter per unit volume of filtrate, lb/ft^3 or kg/m^3: A is the filtration area, ft^2 or m^2; gc is Newton's law proportionality factor; p is the pressure, lbf/ft2 or atm; Rm is the filter-medium resistance, ft^−1 or m^−1. The specific cake resistance a can be calculated from the slope of the linear plot of t/V vs. V.

The record followed here is patent publication US20100249439A1, “PROCESS FOR CONTROLLED CRYSTAL SIZE IN 1,2-SUBSTITUTED 3,4-DIOXO-1-CYCLOBUTENE COMPOUNDS” (priority 2007, published 2010).

Take `CC[C@@H](Nc1c(Nc2cccc(C(=O)N(C)C)c2O)c(=O)c1=O)c1ccc(C)o1` [compound of Formula I, 2-Hydroxy-N,N-dimethyl-3-[[2-[[1(R)-(5-methyl-2-furanyl)propyl]amino]-3,4-dioxo-1-cyclobuten-1-yl]amino]benzamide]: the “filter cake specific resistance” value runs as follows: (Form 4 crystals precipitated from the reaction mixture of Scheme IIa steps a and b, conventional crystallization without temperature cycling) “about 8.0×10^11 m/kg”; (Form 4 monohydrate crystals from n-propanol/water after seeding and temperature cycling (Va: 4 cycles 53-20° C.; Vb: 8 cycles; Vc: 19 cycles 43-20° C.), listed as Example Va) 6.4×10^11 m/Kg; (Form 4 monohydrate crystals from n-propanol/water after seeding and temperature cycling (Va: 4 cycles 53-20° C.; Vb: 8 cycles; Vc: 19 cycles 43-20° C.), listed as Example Vb) 2.5×10^11 m/Kg; (Form 4 monohydrate crystals from n-propanol/water after seeding and temperature cycling (Va: 4 cycles 53-20° C.; Vb: 8 cycles; Vc: 19 cycles 43-20° C.), listed as Example Vc) 1.99×10^11 m/Kg.
